Like-named read-outs stand apart in the source and are kept apart here.
What was measured:
barnyardgrass = test: Test C pre-/postemergence herbicide test; type: in vivo, Echinochloa crus-galli
Method in brief: (§1)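 Compound solutions contained surfactant in a non-phytotoxic solvent. These were sprayed onto pots of loam/sand sown with seeds, and onto young plants (2 to 18 cm, 1- to 4-leaf) in sphagnum peat–vermiculite mix. Visual injury scores (0 none, 100 complete control) were recorded after 13 to 15 days.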

johnsongrass = test: Test C pre-/postemergence herbicide test; type: in vivo, Sorghum halepense
Method in brief: as §1

chickweed = test: Test C postemergence herbicide test; type: in vivo, Stellaria media
Method in brief: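 Greenhouse pot plants at 2 to 18 cm height (1- to 4-leaf stage) received a postemergence application of formulated test chemical. Visual ratings against untreated controls were made after 13 to 15 days, on a 0 (no effect) to 100 (complete control) scale.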

kochia = test: Test C pre-/postemergence herbicide test; type: in vivo, Kochia scoparia; settings: Postemergence
Method in brief: as §1

corn = test: Test A pre-/postemergence herbicide test; type: in vivo, Zea mays; settings: for Corn plant response rating (crop injury, 0 = no effect, 100 = complete kill) at 500 g/ha: 500 g ai/ha
Method in brief: (§2)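 Formulated compound (non-phytotoxic solvent, surfactant) sprayed pre- onto soil of seeded loam/sand pots or post- onto seedlings at 1–2 leaves; ~10 d greenhouse; 0–100 visual control rating versus untreated.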

crabgrass, large = test: Test A pre-/postemergence herbicide test; type: in vivo, Digitaria sanguinalis; settings: for pest or weed control at 500 g/ha: 500 g ai/ha
Method in brief: as §2

morningglory = test: Test C pre-/postemergence herbicide test; type: in vivo, Ipomoea coccinea
Method in brief: as §1

ryegrass, Italian = test: Test C pre-/postemergence herbicide test; type: in vivo, Lolium multiflorum
Method in brief: as §1

[1] = Postemergence, 31 g ai/ha, scale 0 (no effect) to 100 (complete control)
[2] = Postemergence, 62 g ai/ha, scale 0 to 100 (0 no effect, 100 complete control)
[3] = Postemergence, 125 g ai/ha, scale 0 to 100 (0 no effect, 100 complete control)
[4] = Postemergence, 250 g ai/ha, scale 0 to 100 (0 no effect, 100 complete control)
[5] = Preemergence, 31 g ai/ha, scale 0 to 100, 0 is no effect and 100 is complete control
[6] = Preemergence, 62 g ai/ha, scale 0 to 100
[7] = Preemergence, 125 g ai/ha, scale 0 to 100 (0 no effect, 100 complete control)
[8] = 31 g ai/ha, scale 0 (no effect) to 100 (complete control)
[9] = 62 g ai/ha, scale 0 to 100 (0 no effect, 100 complete control)
[10] = 125 g ai/ha, scale 0 to 100 (0 no effect, 100 complete control)
[11] = Preemergence, 125 g ai/ha, visual rating on 0 to 100 scale (0 no effect, 100 complete control)

Structure (SMILES): O=C1NCC(c2ccc(C(F)(F)F)cc2)C1C(=O)Nc1ccccc1F (centres unmarked) [Compound 79, N-(2-fluorophenyl)-2-oxo-4-[4-(trifluoromethyl)phenyl]-3-pyrrolidinecarboxamide]
- Plant response rating, Barnyardgrass (barnyardgrass; [1]): 0
- Plant response rating, Barnyardgrass (barnyardgrass; [2]): 0
- Plant response rating, Barnyardgrass (barnyardgrass; [3]): 35
- Plant response rating, Barnyardgrass (barnyardgrass; [4]): 60
- Barnyardgrass plant response rating (barnyardgrass; [5]): 40
- Plant response rating, Barnyardgrass (barnyardgrass; [6]): 95
- Plant response rating, Barnyardgrass (barnyardgrass; [7]): 95
- Plant response rating (scale of 0 to 100; 0 is no effect, 100 is complete control), Barnyardgrass (barnyardgrass; Preemergence, 250 g ai/ha): 98
- Plant response rating, Johnsongrass (johnsongrass; [1]): 0
- Plant response rating, Johnsongrass (johnsongrass; [2]): 0
- Plant response rating, Johnsongrass (johnsongrass; [3]): 0
- Plant response rating, Johnsongrass (johnsongrass; [4]): 5
- Johnsongrass plant response rating (johnsongrass; [5]): 0
- Plant response rating, Johnsongrass (johnsongrass; [6]): 0
- Plant response rating, Johnsongrass (johnsongrass; [7]): 10
- Plant response rating (scale of 0 to 100), Johnsongrass (johnsongrass; Preemergence, 250 g ai/ha): 10
- Plant response rating, Chickweed (chickweed; [8]): 60
- Plant response rating, Chickweed (chickweed; [9]): 80
- Plant response rating, Chickweed (chickweed; [10]): 90
- Plant response rating, Chickweed (chickweed; 250 g ai/ha, scale 0 to 100 (0 no effect, 100 complete control)): 90
- Plant response rating, Kochia (kochia; [8]): 5
- Plant response rating, Kochia (kochia; [9]): 55
- Plant response rating, Kochia (kochia; [10]): 55
- Corn plant response rating (corn; [11]): 0
- Corn plant response rating (crop injury, 0 = no effect, 100 = complete kill) at 125 g/ha (corn; Zea mays, post-emergence, 240 h, Postemergence, 125 g ai/ha, 0 to 100 scale, 0 no effect, 100 complete control): 20%
- Corn plant response rating (crop injury, 0 = no effect, 100 = complete kill) at 500 g/ha (corn; Zea mays, post-emergence, 240 h, Postemergence, 0 to 100 scale (0 no effect, 100 complete control)): 70%
- Corn plant response rating (crop injury, 0 = no effect, 100 = complete kill) at 500 g/ha (corn; Zea mays, pre-emergence, 240 h, preemergence, 0 to 100 scale): 0%
- pest or weed control at 125 g/ha (crabgrass, large; Digitaria sanguinalis, post-emergence, 240 h, Postemergence, 125 g ai/ha, 0 to 100 scale, 0 no effect, 100 complete control, read-out: Plant response rating, Crabgrass, Large): 80%
- pest or weed control at 500 g/ha (crabgrass, large; Digitaria sanguinalis, post-emergence, 240 h, Postemergence, 0 to 100 scale (0 no effect, 100 complete control), read-out: Plant response rating, Crabgrass, Large): 90%
- pest or weed control at 500 g/ha (crabgrass, large; Digitaria sanguinalis, pre-emergence, 240 h, preemergence, 0 to 100 scale, read-out: Plant response rating, Crabgrass, Large): 90%
- Crabgrass, Large plant response rating (crabgrass, large; [11]): 90
- Plant response rating, Morningglory (morningglory; [1]): 0
- Plant response rating, Morningglory (morningglory; [2]): 0
- Plant response rating, Morningglory (morningglory; [3]): 5
- Plant response rating, Morningglory (morningglory; [4]): 5
- Morningglory plant response rating (morningglory; [5]): 0
- Plant response rating, Morningglory (morningglory; [6]): 0
- Plant response rating, Morningglory (morningglory; [7]): 0
- Plant response rating (scale of 0 to 100), Morningglory (morningglory; Preemergence, 250 g ai/ha): 0
- Plant response rating, Ryegrass, Italian (ryegrass, Italian; [1]): 0
- Plant response rating, Ryegrass, Italian (ryegrass, Italian; [2]): 0
- Plant response rating, Ryegrass, Italian (ryegrass, Italian; [3]): 0
- Plant response rating, Ryegrass, Italian (ryegrass, Italian; [4]): 0
- Ryegrass, Italian plant response rating (ryegrass, Italian; [5]): 0
- Plant response rating, Ryegrass, Italian (ryegrass, Italian; [6]): 5
- Plant response rating, Ryegrass, Italian (ryegrass, Italian; [7]): 30
- Plant response rating (scale of 0 to 100), Ryegrass, Italian (ryegrass, Italian; Preemergence, 250 g ai/ha): 30
